According to US8865741B2, “Aminoindane compounds and use thereof in treating pain” (Asana Biosciences, LLC, priority 2011, dated 2014):

Test system: sodium channel in hTRPV1-N1E115 cells
Experiment: FLIPR membrane potential assay of sodium channel response in hTRPV1-N1E115 cells, with (47° C.) or without (25° C.) heat activation of hTRPV1
Format: cell-based
Settings: for hTRPV1-N1E Nav 0.1 mM (% inhibition) 25° C. / hTRPV1-N1E Nav 1 mM (% inhibition) 25° C.: 25° C. (no heat activation of hTRPV1); for hTRPV1-N1E Nav 0.1 mM (% inhibition) 47° C. / hTRPV1-N1E Nav 1 mM (% inhibition) 47° C.: 47° C. (heat activation of hTRPV1); for IC50: 47° C., class symbols, read-out: hTRPV1-N1E IC50 (μM) 47° C.
Excerpt: In one embodiment, a modified FLIPR® (Fluorometric Imaging Plate Reader) based assay system was developed which is capable of discriminating between non-specific versus hTRPV1-mediated entry of test compounds. Advantageously, the assay system utilizes heat activated opening of hTRPV1 channels followed by an assessment of internal sodium channel block. The assay allows a permanently charged compound to selectively enter through opened hTRPV1 channels and that compound's potency in inhibiting sodium channels from the cytoplasm side of the same cell can be assessed and quantified.
The assay is readily performed in multi-well assay plates into which cells in growth media are added and incubated under conditions which permit the formation of a confluent monolayer over a period of hours prior to the start of the assay. Conventional culture media and conditions may be utilized. Duplicate cell assay plates are prepared for each experiment.
The spent media from the cell seeded plates is removed on the day of the assay and replaced with Membrane potential Dye-Blue (Molecular Devices). The dye was prepared in assay buffer following manufacturer's instructions. The dye-loaded plate is incubated at room temperature (about 25° C.) for about 30 minutes in order to pre-load the cells with dye. Optionally, the cells may be loaded with the dye simultaneously with adding the test compounds.
The test compounds are diluted in the Assay Buffer and added to each well of a specific 384-well ‘compound plate’, which serves as a source plate for compound addition using the FLIPR® platform. The concentration of compounds in the compound-plate was adjusted to achieve the desired final concentration when added to the cells in the ‘cell-plate’. After completion of the dye incubation period, the dye loaded cell-plates and the compound source plates are inserted into the FLIPR® Tetra™ device with a 384 FLIPR® tip box (Molecular Devices, Inc.) according to manufacturer's instructions. The compounds are robotically added to the dye loaded cell-plates using software integral to the FLIPR® Tetra™ instrument.
Immediately following compound addition, hTRPV1 is activated, in one of the duplicate cell plates, by heating. Specifically, entire multi-well plate containing the compound-cells mixture is incubated at 47° C. for 10 minutes, after which they are returned to room temperature (about 25° C.) for a further 30 minutes. Heat activation of hTRPV1 was omitted from the replicate cell plate which was simply maintained at room temperature for the entire 40 minutes.
A membrane potential response is elicited in the dye- and compound-loaded cells by the addition of veratridine which is a known sodium channel ‘agonist’. As illustrated in an example herein, an agonist plate containing veratridine (Sigma) is prepared in advance and is inserted into suitable devices such as, e.g., the FLIPR® TETRA® device for a “2nd addition” as instructed by the manufacturer. The concentration of veratridine in the ‘agonist plate’ was adjusted to achieve a final concentration of 100 μM when added to the cells in the cell-plate. Final concentrations of veratridine greater or lesser than 100 μM may also be used but the signal measured by the FLIPR®^Tetra™ device or another suitable device may vary accordingly.
The exposure of the cells in the cell-plate to veratridine induces sodium channels in the cells to open and the resulting ion flux produces a membrane potential depolarization that is detected as a fluorescence signal by the FLIPR® ^Tetra™ Device. The activity of test compounds is determined by their ability to attenuate the veratridine-induced fluorescence signal, the most promising compounds are those that show an enhanced activity in the heat-activated cell plate over the non-heat-activated cell plate. […]

Row | Compound | IC50 [µM] | hTRPV1-N1E Nav 0.1 mM (% inhibition) 25° C. [%] | hTRPV1-N1E Nav 0.1 mM (% inhibition) 47° C. | hTRPV1-N1E Nav 1 mM (% inhibition) 25° C. | hTRPV1-N1E Nav 1 mM (% inhibition) 47° C.
1 | C[N+]1(C)CCCCC1CCN(c1cccc(F)c1)C1Cc2ccccc2C1.[I-] (centres unmarked) [Example 14, 1,1-dimethyl-2-[2-((3-fluorophenyl)(indan-2-yl)amino)ethyl]piperidinium iodide] | 10 to 100 | 6.3 | 76.7 (N = 3) % | 3.8 (N = 3) % | 25.3 (N = 3) %
2 | C[N+]1(C)CCCCC1CCCN(c1ccccc1)C1Cc2ccccc2C1.[I-] (centres unmarked) [Example 7] | 10 to 100 | 27.3 | 57.9 (N = 2) % | Insoluble | Insoluble
3 | Cc1ccccc1N(CCC1CC[N+](C)(C)CC1)C1Cc2ccccc2C1.[I-] [Example 45, 1,1-Dimethyl-4-[2-((indan-2-yl)(2-methylphenyl)amino)ethyl]piperidinium iodide] | – | 23.1 | 83.3 (N = 2) % | – | –
4 | C[N+]1(C)CCCC1CN(c1ccccc1)C1Cc2ccccc2C1.[I-] (centres unmarked) [Example 8, 1,1-dimethyl-2-[((indan-2-yl)(phenyl)amino)methyl]pyrrolidinium iodide] | – | 6.5 | 22.7 (N = 2) % | 39.9 (N = 2) % | 69.5 (N = 2) %
5 | CC[N+]1(CC)CCCCC1CCN(c1cccc(F)c1)C1Cc2ccccc2C1.[I-] (centres unmarked) [Example 17, 1,1-diethyl-2-[2-((3-fluorophenyl)(indan-2-yl)amino)ethyl]piperidinium iodide] | 10 to 100 | 1 | 86.1 (N = 3) % | 6.1 (N = 3) % | 28.9 (N = 3) %
6 | C[N+]1(C)CCCC1CCN(c1ccccc1)C1Cc2ccccc2C1.[I-] (centres unmarked) [Example 5, 1,1-dimethyl-2-[2-((indan-2-yl)(phenyl)amino)ethyl]pyrrolidinium iodide] | 10 to 100 | 21 | 50 (N = 2) % | – | –
7 | C[N+]1(C)CCCCC1CCN(c1ncccn1)C1Cc2ccccc2C1.[I-] (centres unmarked) [Example 38, 1,1-dimethyl-2-[2-((indan-2-yl)(pyrimidine-2-yl)amino)ethyl]piperidinium iodide] | – | 25.9 | 37.5 (N = 2) % | 46.6 (N = 2) % | 70.4 (N = 2) %
8 | Cc1cccc(N(CCC2CCCC[N+]2(C)C)C2Cc3ccccc3C2)c1.[I-] (centres unmarked) [Example 19, 1,1-Dimethyl-2-[2-((indan-2-yl)(3-methylphenyl)amino)ethyl]piperidinium iodide] | 10 to 100 | 0 | 87.9% | Insoluble | Insoluble
9 | C[N+]1(C)CCCCC1CN(c1ccc(F)cc1)C1Cc2ccccc2C1.[I-] (centres unmarked) [Example 28, 1,1-Dimethyl-2-[((4-fluorophenyl)(indan-2-yl)amino)methyl]piperidinium iodide] | – | 30.2 | 43.7 (N = 2) % | 61.8 (N = 2) % | 86.6 (N = 2) %
10 | Cc1ccc(N(CCC2CCCC[N+]2(C)C)C2Cc3ccccc3C2)cc1.[I-] (centres unmarked) [Example 22, 1,1-Dimethyl-2-[2-((indan-2-yl)(4-methylphenyl)amino)ethyl]piperidinium iodide] | 10 to 100 | 8.7 | 62.7 (N = 2) % | 48 (N = 2) % | 69.9 (N = 2) %
11 | [Br-].c1ccc(N(CCC2CCCC[N+]23CCCC3)C2Cc3ccccc3C2)cc1 (centres unmarked) [Example 20, 6-[2-((Indan-2-yl)(phenyl)amino)ethyl]-5-azoniaspiro[4.5]decane bromide] | 10 to 100 | 11.2 | 94.8 (N = 3) % | 0 (N = 3) % | 48.9 (N = 3) %
12 | CC[N+]1(CC)CCCCC1CN(c1ccccc1)C1Cc2ccccc2C1.[I-] (centres unmarked) [Example 13, 1,1-Diethyl-2-[((indan-2-yl)(phenyl)amino)methyl]piperidinium iodide] | 10 to 100 | 67 | 99 (N = 2) % | 64 (N = 2) % | 92 (N = 2) %
13 | Cc1ccc(N(CC2CCCC[N+]2(C)C)C2Cc3ccccc3C2)cc1.[I-] (centres unmarked) [Example 27, 1,1-Dimethyl-2-[((indan-2-yl)(4-methylphenyl)amino)methyl]piperidinium iodide] | – | 68.1 | 81.3 (N = 2) % | 61.4 (N = 2) % | 71.9 (N = 2) %

Second part, led by results:

Row | IC50 [µM] | Compound | hTRPV1-N1E Nav 0.1 mM (% inhibition) 25° C. [%] | hTRPV1-N1E Nav 0.1 mM (% inhibition) 47° C. | hTRPV1-N1E Nav 1 mM (% inhibition) 25° C. | hTRPV1-N1E Nav 1 mM (% inhibition) 47° C.
14 | 1 to 10 | CC[N+]1(CC)CCCCC1CCN(c1ccccc1C)C1Cc2ccccc2C1.[I-] (centres unmarked) [Example 25, 1,1-Diethyl-2-[2-((indan-2-yl)(2-methylphenyl)amino)ethyl]piperidinium iodide] | 26.4 | 89.6 (N = 2) % | Insoluble | Insoluble
15 | 10 to 100 | Cc1ccccc1N(CCC1CCCC[N+]1(C)C)C1Cc2ccccc2C1 (centres unmarked) [Example 50, 1,1-Dimethyl-2-[2-((indan-2-yl)(2-methylphenyl)amino)ethyl]piperidinium chloride] | – | – | – | –
16 | 10 to 100 | Cc1ccccc1N(CCC1CCCC[N+]1(C)C)C1Cc2ccccc2C1 (centres unmarked) [Example 52, 1,1-Dimethyl-2-[2-((indan-2-yl)(2-methylphenyl)amino)ethyl]piperidinium bromide] | – | – | – | –
17 | 10 to 100 | CC[N+]1(CC)CCCC1CCN(c1ccccc1)C1Cc2ccccc2C1.[I-] (centres unmarked) [Example 36, 1,1-diethyl-2-[2-((indan-2-yl)(phenyl)amino)ethyl]pyrrolidinium iodide] | 5.4 | 74.0 (N = 2) % | – | –
18 | 10 to 100 | C[N+]1(C)CCCC[C@H]1CN(c1ccccc1)C1Cc2ccccc2C1 [Example 32, (S)-1,1-Dimethyl-2-[((indan-2-yl)(phenyl)amino)methyl]piperidinium iodide] | – | – | – | –
19 | 10 to 100 | Cc1ccccc1N(CC[C@H]1CCCC[N+]1(C)C)C1Cc2ccccc2C1 [Example 35, (R)-1,1-Dimethyl-2-[2-((indan-2-yl)(2-methylphenyl)amino)ethyl]piperidinium iodide] | – | – | – | –
20 | 10 to 100 | Cc1ccccc1N(CC[C@@H]1CCCC[N+]1(C)C)C1Cc2ccccc2C1 [Example 34, (S)-1,1-Dimethyl-2-[2-((indan-2-yl)(2-methylphenyl)amino)ethyl]piperidinium iodide] | – | – | – | –
21 | 10 to 100 | Cc1ccccc1N(CCC1CCCC[N+]1(CCO)CCO)C1Cc2ccccc2C1.[Br-] (centres unmarked) [Example 46, 1,1-Bis(2-hydroxyethyl)-2-[2-((indan-2-yl)(2-methylphenyl)amino)ethyl]piperidinium bromide] | 31.8 | 94.4 (N = 2) % | – | –
22 | 10 to 100 | CC[N+]1(CC)CCCC[C@H]1CCN(c1ccccc1)C1Cc2ccccc2C1.[Br-] [Example 49, (S)-1,1-Diethyl-2-[2-((indan-2-yl)(phenyl)amino)ethyl]piperidinium bromide] | 22.2 | – | – | –
